Measurements published in US9529005B2, “Modulating bacterial MAM polypeptides in pathogenic disease” (priority 2011, dated 2016).
≈ marks a conversion by molar mass, not a printed value. Like-named read-outs stand apart in the source and are kept apart here.

Experiments:
Assay in all cases: Antimicrobial susceptibility testing (MIC), BD Phoenix Automated Microbiology System; on interpretation of the result: key: R, resistant; I, intermediate; S, susceptible; R*: *As a rule, when ESBL is detected, an interpretation of susceptible or intermediate for penicillins, cephalosporins and aztreonam is reported as resistant
Assay type in all cases: cell-based
Klebsiella ssp. = details: for MIC: Klebsiella
Source text: (§1) The inventors performed antimicrobial susceptibility testing (AST) by determining the minimal inhibiting concentration (MIC) of a panel of antimicrobials on all twenty bacterial isolates using the BD Phoenix Automated Microbiology System (Table 3). Antimicrobial panels included several drugs from each of the four most commonly used classes of antimicrobials, aminoglycosides, β-lactams, carbapenems and fluoroquinolones. The panels also included antimicrobials from other classes, such as trimethoprim/sulfamethoxazole, but resistance to these was not considered in the classification of isolates as multidrug-resistant.

Acinetobacter baumannii = details: for MIC: Acinetobacter baumannii
Source text: as §1

Escherichia coli = details: for MIC: Escherichia coli
Source text: as §1

Pseudomonas aeruginosa = details: for MIC: Pseudomonas aeruginosa
Source text: as §1

[1] = Acinetobacter baumannii isolate 1
[2] = Acinetobacter baumannii isolate 2
[3] = Acinetobacter baumannii isolate 3
[4] = Acinetobacter baumannii isolate 4
[5] = Acinetobacter baumannii isolate 5
[6] = read-out: minimal inhibiting concentration, Klebsiella ssp. isolate 1
[7] = read-out: minimal inhibiting concentration, Klebsiella ssp. isolate 2
[8] = read-out: minimal inhibiting concentration, Klebsiella ssp. isolate 3
[9] = read-out: minimal inhibiting concentration, Klebsiella ssp. isolate 4
[10] = read-out: minimal inhibiting concentration, Klebsiella ssp. isolate 5
[11] = read-out: minimal inhibiting concentration, Escherichia coli isolate 1
[12] = read-out: minimal inhibiting concentration, Escherichia coli isolate 2
[13] = read-out: minimal inhibiting concentration, Escherichia coli isolate 3
[14] = read-out: minimal inhibiting concentration, Escherichia coli isolate 4
[15] = read-out: minimal inhibiting concentration, Escherichia coli isolate 5
[16] = read-out: minimal inhibiting concentration, Acinetobacter baumannii isolate 1
[17] = read-out: minimal inhibiting concentration, Acinetobacter baumannii isolate 2
[18] = read-out: minimal inhibiting concentration, Acinetobacter baumannii isolate 3
[19] = read-out: minimal inhibiting concentration, Acinetobacter baumannii isolate 4
[20] = read-out: minimal inhibiting concentration, Acinetobacter baumannii isolate 5

Row | SMILES | interpretation of the result (Klebsiella ssp.; Klebsiella ssp. isolate 1) | interpretation of the result (Klebsiella ssp.; Klebsiella ssp. isolate 2) | interpretation of the result (Klebsiella ssp.; Klebsiella ssp. isolate 3) | interpretation of the result (Klebsiella ssp.; Klebsiella ssp. isolate 4) | interpretation of the result (Klebsiella ssp.; Klebsiella ssp. isolate 5) | interpretation of the result (Acinetobacter baumannii; [1]) | interpretation of the result (Acinetobacter baumannii; [2]) | interpretation of the result (Acinetobacter baumannii; [3]) | interpretation of the result (Acinetobacter baumannii; [4]) | interpretation of the result (Acinetobacter baumannii; [5]) | interpretation of the result (Escherichia coli; Escherichia coli isolate 1) | interpretation of the result (Escherichia coli; Escherichia coli isolate 2) | interpretation of the result (Escherichia coli; Escherichia coli isolate 3) | interpretation of the result (Escherichia coli; Escherichia coli isolate 4) | MIC (Klebsiella ssp.; [6]) | MIC (Klebsiella ssp.; [7]) | MIC (Klebsiella ssp.; [8]) | MIC (Klebsiella ssp.; [9]) | MIC (Klebsiella ssp.; [10]) | MIC (Escherichia coli; [11]) | further results
1 | C[C@H]1[C@H](NC(=O)/C(=N\OC(C)(C)C(=O)O)c2csc(N)n2)C(=O)N1S(=O)(=O)O [Az., Aztreonam] | R | R | R | R | R | R | R | R | R | R | R | R | R | R |  |  |  |  |  |  | MIC (Klebsiella ssp.; Klebsiella ssp. isolate 1, read-out: minimal inhibiting concentration): > 16 µg/mL; MIC (Klebsiella ssp.; Klebsiella ssp. isolate 2, read-out: minimal inhibiting concentration): > 16 µg/mL; MIC (Klebsiella ssp.; Klebsiella ssp. isolate 3, read-out: minimal inhibiting concentration): > 16 µg/mL; MIC (Klebsiella ssp.; Klebsiella ssp. isolate 4, read-out: minimal inhibiting concentration): > 16 µg/mL; MIC (Klebsiella ssp.; Klebsiella ssp. isolate 5, read-out: minimal inhibiting concentration): > 16 µg/mL; MIC (Acinetobacter baumannii; Acinetobacter baumannii isolate 1, read-out: minimal inhibiting concentration): > 16 µg/mL; MIC (Acinetobacter baumannii; Acinetobacter baumannii isolate 2, read-out: minimal inhibiting concentration): > 16 µg/mL; MIC (Acinetobacter baumannii; Acinetobacter baumannii isolate 3, read-out: minimal inhibiting concentration): > 16 µg/mL; MIC (Acinetobacter baumannii; Acinetobacter baumannii isolate 4, read-out: minimal inhibiting concentration): > 16 µg/mL; MIC (Acinetobacter baumannii; Acinetobacter baumannii isolate 5, read-out: minimal inhibiting concentration): > 16 µg/mL; MIC (Escherichia coli; Escherichia coli isolate 1, read-out: minimal inhibiting concentration): > 16 µg/mL; MIC (Escherichia coli; Escherichia coli isolate 2, read-out: minimal inhibiting concentration): > 16 µg/mL; MIC (Escherichia coli; Escherichia coli isolate 3, read-out: minimal inhibiting concentration): > 16 µg/mL; MIC (Escherichia coli; Escherichia coli isolate 4, read-out: minimal inhibiting concentration): > 16 µg/mL; MIC (Escherichia coli; Escherichia coli isolate 5, read-out: minimal inhibiting concentration): 8 µg/mL (≈ 18.4 µM)
2 | CO/N=C(\C(=O)N[C@@H]1C(=O)N2C(C(=O)[O-])=C(C[N+]3(C)CCCC3)CS[C@H]12)c1csc(N)n1 [Cefe., Cefepime] | R | R |  | R |  |  |  |  |  |  | R | R | R | R | > 16 µg/mL | > 16 µg/mL | 2 µg/mL (≈ 4.16 µM) | > 16 µg/mL | 2 µg/mL (≈ 4.16 µM) | > 16 µg/mL | MIC (Escherichia coli; [12]): > 16 µg/mL; MIC (Escherichia coli; [13]): > 16 µg/mL; MIC (Escherichia coli; [14]): > 16 µg/mL; MIC (Escherichia coli; [15]): 8 µg/mL (≈ 16.6 µM)
3 | CO/N=C(\C(=O)N[C@@H]1C(=O)N2C(C(=O)O)=C(COC(C)=O)CS[C@H]12)c1csc(N)n1 [Cefo., Cefotaxime] | R | R | S | R | R | R | R | R | R | R |  |  |  |  | > 32 µg/mL | > 32 µg/mL | ≤ 4 µg/mL | > 32 µg/mL | > 32 µg/mL |  | MIC (Acinetobacter baumannii; [16]): > 32 µg/mL; MIC (Acinetobacter baumannii; [17]): > 32 µg/mL; MIC (Acinetobacter baumannii; [18]): > 32 µg/mL; MIC (Acinetobacter baumannii; [19]): > 32 µg/mL; MIC (Acinetobacter baumannii; [20]): > 32 µg/mL
4 | CO/N=C(\C(=O)N[C@@H]1C(=O)N2C(C(=O)O)=C(COC(N)=O)CS[C@H]12)c1ccco1 [Cefu., Cefuroxime] |  |  |  |  |  | R | R | R | R | R | R | R | R | R |  |  |  |  |  | > 16 µg/mL | interpretation of the result (Pseudomonas aeruginosa; Pseudomonas aeruginosa isolate 1): R; interpretation of the result (Pseudomonas aeruginosa; Pseudomonas aeruginosa isolate 2): R; interpretation of the result (Pseudomonas aeruginosa; Pseudomonas aeruginosa isolate 3): R; interpretation of the result (Pseudomonas aeruginosa; Pseudomonas aeruginosa isolate 4): R; interpretation of the result (Pseudomonas aeruginosa; Pseudomonas aeruginosa isolate 5): R; MIC (Pseudomonas aeruginosa; read-out: minimal inhibiting concentration, Pseudomonas aeruginosa isolate 1): > 16 µg/mL; MIC (Pseudomonas aeruginosa; read-out: minimal inhibiting concentration, Pseudomonas aeruginosa isolate 2): > 16 µg/mL; MIC (Pseudomonas aeruginosa; read-out: minimal inhibiting concentration, Pseudomonas aeruginosa isolate 3): > 16 µg/mL; MIC (Pseudomonas aeruginosa; read-out: minimal inhibiting concentration, Pseudomonas aeruginosa isolate 4): > 16 µg/mL; MIC (Pseudomonas aeruginosa; read-out: minimal inhibiting concentration, Pseudomonas aeruginosa isolate 5): > 16 µg/mL; MIC (Acinetobacter baumannii; [16]): > 16 µg/mL; MIC (Acinetobacter baumannii; [17]): > 16 µg/mL; MIC (Acinetobacter baumannii; [18]): > 16 µg/mL; MIC (Acinetobacter baumannii; [19]): > 16 µg/mL; MIC (Acinetobacter baumannii; [20]): > 16 µg/mL; interpretation of the result (Escherichia coli; Escherichia coli isolate 5): R; MIC (Escherichia coli; [12]): > 16 µg/mL; MIC (Escherichia coli; [13]): > 16 µg/mL; MIC (Escherichia coli; [14]): > 16 µg/mL; MIC (Escherichia coli; [15]): > 16 µg/mL
5 | CC(=O)OCC1=C(C(=O)O)N2C(=O)[C@@H](NC(=O)Cc3cccs3)[C@H]2SC1 [Ceph., Cephalotin] |  |  |  |  |  | R | R | R | R | R |  |  |  |  |  |  |  |  |  |  | minimal inhibiting concentration (Acinetobacter baumannii; [1]): > 16 µg/mL; minimal inhibiting concentration (Acinetobacter baumannii; [2]): > 16 µg/mL; minimal inhibiting concentration (Acinetobacter baumannii; [3]): > 16 µg/mL; minimal inhibiting concentration (Acinetobacter baumannii; [4]): > 16 µg/mL; minimal inhibiting concentration (Acinetobacter baumannii; [5]): > 16 µg/mL
